These results are taken from ChEMBL document CHEMBL3886805, “Pyrrolotriazinone derivatives as PI3K inhibitors” (2016).

In this assay the target is T1, Phosphatidylinositol 4,5-bisphosphate 3-kinase catalytic subunit delta isoform (Homo sapiens, UniProt O00329).
T1 sequence (O00329 whole entry): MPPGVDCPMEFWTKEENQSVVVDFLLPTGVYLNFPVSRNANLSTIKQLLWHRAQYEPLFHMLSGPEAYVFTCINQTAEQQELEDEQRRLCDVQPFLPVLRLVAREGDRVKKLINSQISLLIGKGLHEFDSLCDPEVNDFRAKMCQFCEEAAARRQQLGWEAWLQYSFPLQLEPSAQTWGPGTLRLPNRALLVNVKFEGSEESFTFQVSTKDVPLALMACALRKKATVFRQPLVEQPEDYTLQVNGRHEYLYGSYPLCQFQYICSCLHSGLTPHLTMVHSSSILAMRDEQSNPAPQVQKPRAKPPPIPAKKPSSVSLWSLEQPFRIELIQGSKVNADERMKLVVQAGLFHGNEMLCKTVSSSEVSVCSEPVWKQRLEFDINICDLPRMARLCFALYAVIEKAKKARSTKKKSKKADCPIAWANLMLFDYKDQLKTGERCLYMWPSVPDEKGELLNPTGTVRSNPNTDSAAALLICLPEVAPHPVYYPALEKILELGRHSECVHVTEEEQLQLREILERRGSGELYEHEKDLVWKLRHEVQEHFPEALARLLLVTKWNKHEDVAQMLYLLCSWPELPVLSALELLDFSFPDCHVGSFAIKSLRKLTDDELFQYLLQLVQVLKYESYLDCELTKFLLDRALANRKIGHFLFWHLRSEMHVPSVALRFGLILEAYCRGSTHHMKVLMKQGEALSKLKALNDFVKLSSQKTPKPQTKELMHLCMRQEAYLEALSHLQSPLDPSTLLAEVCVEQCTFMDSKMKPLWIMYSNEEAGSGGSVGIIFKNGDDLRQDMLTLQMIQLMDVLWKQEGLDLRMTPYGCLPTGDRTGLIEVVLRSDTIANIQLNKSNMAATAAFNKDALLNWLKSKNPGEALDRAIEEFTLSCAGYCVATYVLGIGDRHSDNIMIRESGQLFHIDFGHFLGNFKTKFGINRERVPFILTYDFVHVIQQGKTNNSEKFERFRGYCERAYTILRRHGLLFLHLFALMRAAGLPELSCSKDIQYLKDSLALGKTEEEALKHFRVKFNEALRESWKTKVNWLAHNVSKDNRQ
Description: [PIP2] was used at its Km.
For `Cc1ccn2nc([C@H](C)Nc3ncnc(N)c3C(=O)Nc3cccc(O)c3)n(-c3ccccc3)c(=O)c12`, 3 nM corresponded to half-maximal inhibition (IC50).

On to `COc1ccc(S(=O)(=O)n2ncc3ccc(-c4c(N)ncnc4N[C@@H](C)c4nn5ccc(C)c5c(=O)n4-c4ccccc4)cc32)cc1`, for which the IC50 came to 0.4 nM.

Compound `COc1ncc(-c2c(N)ncnc2N[C@@H](C)c2nn3ccc(C)c3c(=O)n2-c2ccccc2)cc1NS(=O)(=O)C(F)(F)F` had an IC50 of 1 nM.

`C[C@H](Nc1ncnc(N)c1C#N)c1nn2ccc(Sc3ccc(O)c(F)c3)c2c(=O)n1-c1ccccc1`: half-maximal inhibition (IC50) was put at 2 nM.

On to `COc1ncc(-c2c(N)ncnc2N[C@@H](C)c2nn3ccc(Br)c3c(=O)n2-c2ccccc2)cc1NS(C)(=O)=O`, for which inhibition was half-maximal at 25 nM (IC50).

For `Cc1ccn2nc([C@H](C)Nc3ncnc(N)c3C(=O)Nc3cc(C(N)=O)ccc3O)n(-c3ccccc3)c(=O)c12`, it took 3 nM to reach half-maximal inhibition (IC50).
